Consider 13 molecules from US8597688B2, “Pesticidal mixtures comprising isoxazoline compounds II” (BASF SE, priority 2008, dated 2013).

What all share (assay type): cell-based
The test system of one assay is Pyricularia oryzae. The following applies: single active compound, Pyrior microtiter test.
The subject of another assay is Septoria tritici. Put plainly: Activity against leaf blotch on wheat caused by Septoria tritici (Septtr), microtiter test. Conditions: day 7.
For a further assay, the system named is Phytophthora infestans. The following applies: day 7.
For a further assay, the system named is Botrytis cinerea. Put plainly: Activity against the grey mold Botrytis cinerea in the microtiterplate test (Botrci). The following applies: 7 days.

Read-outs that look alike come from different tables or passages of the source.

For the molecule `O=C(CNC(=O)c1ccc(C2=NOC(c3cc(Cl)cc(Cl)c3)(C(F)(F)F)C2)c2ccccc12)NCC(F)(F)F` (stereo not drawn) [C.I.402], the Observed efficacy stood at 6 in the assay on Pyricularia oryzae (concentration 1 ppm), 35 with Pyricularia oryzae (concentration 4 ppm), 2% in the assay with Septoria tritici (4 ppm) and 0% with Septoria tritici (63 ppm).
Consider `Cc1cc(C2=NOC(c3cc(Cl)cc(Cl)c3)(C(F)(F)F)C2)ccc1C(=O)NCC(=O)NCC(F)(F)F` (stereo not drawn) [C.I.240], for which the Observed efficacy with Phytophthora infestans (4 ppm) was 6%; with Phytophthora infestans (16 ppm), 15%; with Botrytis cinerea (0.063 ppm) it was 0%; with Botrytis cinerea (16 ppm) it was 18%; with Pyricularia oryzae (concentration 1 ppm), 0; with Pyricularia oryzae (concentration 4 ppm), 11. Also, the Observed efficacy in the assay with Septoria tritici (4 ppm) is given as 0%.
`N#Cc1c(Cl)c(Cl)c(Cl)c(C#N)c1Cl` [Chlorothalonil, 2,4,5,6-tetrachloroisophthalonitrile, reference compound]: the Observed efficacy in the assay on Phytophthora infestans (1 ppm) was 53%; with Botrytis cinerea (1 ppm), 43%.
`CC1(C(=O)Nc2ccc(O)c(Cl)c2Cl)CCCCC1` [Fenhexamid, N-(2,3-dichloro-4-hydroxyphenyl)-1-methylcyclohexanecarboxamide, reference compound]: the Observed efficacy in the assay on Botrytis cinerea (0.016 ppm) is on record as 51%.
In turn, `Fc1ccc([C@]2(Cn3cncn3)O[C@H]2c2ccccc2Cl)cc1` [Epoxiconazol] had an Observed efficacy in the assay with Pyricularia oryzae (concentration 0.063 ppm) of 0.
On to `CON=C(C(=O)OC)c1ccccc1CON=C(C)c1cccc(C(F)(F)F)c1` [Trifloxystrobin], for which, in the assay on Pyricularia oryzae (concentration 0.063 ppm), the Observed efficacy is 32.
Still for that read-out and setting: the figure for `CO/C=C(/C(=O)OC)c1ccccc1COc1cccc(C(F)(F)F)n1` [Picoxystrobin] is 60.
Take `COC(=O)N(OC)c1ccccc1COc1ccn(-c2ccc(Cl)cc2)n1` [Pyraclostrobin, methyl N-{2-[1-(4-chlorophenyl)-1H-pyrazol-3-yloxymethyl]phenyl}(N-methoxy)carbamate, reference compound]: the Observed efficacy in the assay with Phytophthora infestans (0.016 ppm) is listed as 13%; in the assay on Pyricularia oryzae (concentration 0.004 ppm), 26.
Turning to `CC(C)NC(=O)N1CC(=O)N(c2cc(Cl)cc(Cl)c2)C1=O` [Iprodion], the Observed efficacy in the assay on Pyricularia oryzae (concentration 0.24 ppm) is 4.
As to Mancozeb, in the assay on Pyricularia oryzae (concentration 1 ppm), the Observed efficacy is reported as 36.
`CC(C)OC(=O)N[C@H](C(=O)N[C@H](C)c1nc2ccc(F)cc2s1)C(C)C` [Fubenthiavalicarb (Benthivalicarb), isopropyl {(S)-1-[(1R)-1-(6-fluorobenzothiazol-2-yl)-ethylcarbamoyl]-2-methylpropyl}carbamate, reference compound] returned an Observed efficacy in the assay on Septoria tritici (4 ppm) of 0%.
The molecule `CO/N=C(/C1=NOCCO1)c1ccccc1Oc1ncnc(Oc2ccccc2Cl)c1F` [Fluoxastrobin, (E)-{2-[6-(2-chlorophenoxy)-5-fluoropyrimidin-4-yloxy]phenyl}(5,6-dihydro-1,4,2-dioxazin-3-yl)methanone O-methyloxime, reference compound] gave an Observed efficacy in the assay with Septoria tritici (0.25 ppm) of 68%.
As for `COC(=O)Nc1nc2ccccc2[nH]1` [Carbendazim], the Observed efficacy with Pyricularia oryzae (concentration 0.25 ppm) was 18.
